Read-outs that look alike come from different tables or passages of the source. Ends that are not written are not given here.
Key:
HLA-DRB1*01:01 = molecular target: T1, HLA-DRB1*01:01 (Homo sapiens, UniProt P01903+P01911, A100R/D57E/F55L/F60I/F76Y/I96L/L162R/M171V/P40L/Q125E/R42F/V115G/Y59C); assay: HLA class II peptide binding, inhibition of radiolabeled peptide binding to purified MHC; conditions: read-out: DRB1*01:01 binding capacity, WT peptide (IC50 nM)
T1 construct: EBV transformed homozygous cell lines were used as sources of MHC molecules; endogenous in cells; host or cells: EBV transformed homozygous cell lines

HLA-DRB1*04:01 = molecular target: T2, HLA-DRB1*04:01 (Homo sapiens, UniProt P01903+P01911, A100K/A169T/F76Y/I96L/K127E/L162R/M171V/N62H/P40V/Q125Y/R42H/S133A/S149N/S66Y/V115G/V209L/W38E); assay: as above; conditions: read-out: DRB1*04:01 binding capacity, WT peptide (IC50 nM)
T2 construct: EBV transformed homozygous cell lines were used as sources of MHC molecules; endogenous in cells; host or cells: EBV transformed homozygous cell lines

IC50 (HLA-DRB1*01:01) [nM]	IC50 (HLA-DRB1*04:01) [nM]	IC50 (HLA-DRB1*01:01; wild-type (unmodified Arg) 15-mer peptide, purified HLA-DRB1*01:01) [nM]	IC50 (HLA-DRB1*04:01; wild-type (unmodified Arg) 15-mer peptide, purified HLA-DRB1*04:01) [nM]	Sequence
12500	16400	–	–	VEVERDNLAEDIMRL [Vimentin 171 WT]
394	953	–	–	YKSKFADLSEAANRN [Vimentin 291 WT]

Second part, the sequence before the results:

Sequence	IC50 (HLA-DRB1*01:01) [nM]	IC50 (HLA-DRB1*04:01) [nM]	IC50 (HLA-DRB1*01:01; wild-type (unmodified Arg) 15-mer peptide, purified HLA-DRB1*01:01) [nM]	IC50 (HLA-DRB1*04:01; wild-type (unmodified Arg) 15-mer peptide, purified HLA-DRB1*04:01) [nM]
VLLTLLVAAVLRCQG [Collagen 11 WT]	–	–	148	> 40000
VSSSSYRRMFGGPGT [Vimentin 6 WT]	25	725	–	–
VTTSTRTYSLGSALR [Vimentin 31 WT]	5	1220	–	–
YATRSSAVRLRSSVP [Vimentin 61 WT]	17	1600	–	–
YRRMFGGPGTASRPS [Vimentin 11 WT]	440	9750	–	–

From paper PMC5421785, “Citrullination only infrequently impacts peptide binding to HLA class II MHC” (PLoS ONE, 2017)
